Laboratory results published in ChEMBL document CHEMBL3091414, “Validation of Reactivity Descriptors to Assess the Aromatic Stacking within the Tyrosine Gate of FimH” (ACS Med Chem Lett, 2013).
pKd: −log10 of the molar value.

Test: Binding affinity to Escherichia coli J96 FimH lectin domain (Phe1 to Thr158) expressed in Escherichia coli C43 (DE3) by isothermal titration calorimetry assay

SMILES | pKd
CCCCCCCO[C@H]1O[C@H](CO)[C@@H](O)[C@H](O)[C@@H]1O | 8.14
COCC#Cc1ccc(O[C@H]2O[C@H](CO)[C@@H](O)[C@H](O)[C@@H]2O)cc1 | 7.23
CCCCO[C@H]1O[C@H](CO)[C@@H](O)[C@H](O)[C@@H]1O [BUTYLALPHAMAN] | 6.81

Test: Binding affinity to Escherichia coli J96 FimH lectin domain (Phe1 to Thr158) expressed in Escherichia coli C43 (DE3) by surface plasmon resonance analysis

SMILES | pKd
CCCCCCCO[C@H]1O[C@H](CO)[C@@H](O)[C@H](O)[C@@H]1O | 8.51
OCC#Cc1ccc(O[C@H]2O[C@H](CO)[C@@H](O)[C@H](O)[C@@H]2O)cc1 | 7.43
CCCSCCCO[C@H]1O[C@H](CO)[C@@H](O)[C@H](O)[C@@H]1O | 7.85
O=C(C[C@H]1O[C@H](CO)[C@@H](O)[C@H](O)[C@@H]1O)Nc1nc2ccccc2s1 | 7.23
O=C(C[C@H]1O[C@H](CO)[C@@H](O)[C@H](O)[C@@H]1O)Nc1nc2ccccc2[nH]1 | 5.38
O=C(C[C@H]1O[C@H](CO)[C@@H](O)[C@H](O)[C@@H]1O)Nc1ccccc1 | 6.43
O=C(C[C@H]1O[C@H](CO)[C@@H](O)[C@H](O)[C@@H]1O)Nc1ccc(O)cc1 | 6.48
O=C(C[C@H]1O[C@H](CO)[C@@H](O)[C@H](O)[C@@H]1O)Nc1ccc(Cl)cc1 | 6.95
COc1ccc(C#CCO[C@H]2O[C@H](CO)[C@@H](O)[C@H](O)[C@@H]2O)cc1 | 7.28
CCCCO[C@H]1O[C@H](CO)[C@@H](O)[C@H](O)[C@@H]1O [BUTYLALPHAMAN] | 6.82
